# Test results from US7723091B2 (priority 1999, dated 2010).
# Marks after values point to notes of the source that are not given here.
# What was measured:
# [1] = tested on: Cryptosporidium; experiment: SCID mouse model of Cryptosporidium infection; conditions: for Parasite load (SD) Day 21 / Parasite load (SD) Day 28 / Parasite load (SD) Day 31 / Percent Inhibition Day 21 / Percent Inhibition Day 28 / Percent Inhibition Day 31: feces
# [2] = tested on: E. acervulina, E. maxima and Clostridium perfringens; format: in vivo, broiler chickens; conditions: Trial IV; infected; PI-PLC 30 U/lb, Man. 121 MU/ton, BMD 50 g/ton, salinomycin 60 g/ton
# [3] = tested on: C. parvum; experiment: Anti-cryptosporidial activity in MDCK cell cultures (chemiluminescence immunoassay); format: cell-based, Cryptosporidium parvum
# Experimental: The enzyme PI-PLC was evaluated for anti-cryptosporidial activity and toxicity at concentrations ranging from 0.001-30 U/ml were performed using 4-day-old Madin-Darby canine kidney (MDCK) cells. Enzyme units were defined as by the method in Example 4 but measured as in Example 9. The preparation of enzyme used was from recombinant Bacillus megaterium. Treatment was initiated 3 hours after infection and continued through 48 hours.
# Chemiluminescence Immunoassay. Before infection, oocysts were washed and resuspended in DMEM base with 0.75% sodium taurocholate and incubated for 10 min at 37° C. (You et al., FEMS Microbiol. Letters 136:251-256, 1996; You et al., J. Antimicrobial. Chemother. 41:293-296, 1998). The excystation mixture was diluted with Ultraculture medium, promptly dispensed in plates containing MDCK cells, at 100% confluence, and maintained in Ultraculture medium for 4 days. The inoculum was incubated with the cells for3 h before washing with PBS and replaced with fresh Ultraculture medium with or without test enzyme. Plates were incubated at 37° C., in a 5% CO2 air atmosphere for 48 h. Cultures were washed with PBS and fixed with Bouin's solution.
# The fixed plates were washed with TBST buffer (20 mM Tris-HCl (pH 7.5), 150 mM NaCl, 0.05% Tween-20) and blocked with 1% BSA-TBST (TBST buffer containing 1% bovine serum albumin) for 30 min at 25° C. with gentle shaking. Rabbit anti-Cryptosporidium parvum sera (1:200 dilution) was applied to the plates and incubated for 1 hr. After washing with TBST, the samples were sequentially incubated with biotin-labeled goat anti-rabbit IgG and horseradish peroxidase-labeled streptavidin (working dilution, 1:1000, KPL Inc., Gaithersburg, Md.). Enhanced Luminol (4-iodophenol and hydrogen peroxide, Aldrich Chemical Co. Inc., Milwaukee, Wis.) was used as a substrate. The plates were read with an ML3000 Luminometer (Dynatech Lab., Chantilly, Va.) and the relative light units (RLU) were determined. Means of RLU were calculated from 4 replicate wells and all experiments were repeated at least twice.
# A second set of experiments were performed to evaluate enzyme specificity. Sporozoites were treated with the enzyme at various concentrations for 45 min and briefly washed. The treated sporozoites were then allowed to infect untreated host cells and develop and reproduce for 48 hours. In a separate experiment, host cells were incubated with the enzyme at various concentrations, washed and infected with untreated sporozoites. As shown below (Table 14), treatment of either sporozoite or host cells with the enzyme results in partial inhibition. A dose dependent inhibition was not observed in this concentration range. This may be due to the short incubation period of the enzyme with host or parasite cells (45 min) or partial or incomplete cleavage of host/parasite receptors. Additionally, other host/parasite receptors are probably involved in infection and account for the growth observed in the host cells.
# [4] = Group A, 90 U/lb in feed, Day 3
# [5] = Group A, 90 U/lb in feed, Day 7
# [6] = Group A, 90 U/lb in feed, Day 10
# [7] = Group A, 90 U/lb in feed, Day 14
# [8] = Group A, 90 U/lb in feed, Day 17
# [9] = Group A, 90 U/lb in feed, Day 21
# [10] = Group A, 90 U/lb in feed, Day 24
# [11] = Group B, 30 U/lb in feed, Day 3
# [12] = Group B, 30 U/lb in feed, Day 7
# [13] = Group B, 30 U/lb in feed, Day 10
# [14] = Group B, 30 U/lb in feed, Day 14
# [15] = Group B, 30 U/lb in feed, Day 17
# [16] = Group B, 30 U/lb in feed, Day 21
# [17] = Group B, 30 U/lb in feed, Day 24
# [18] = Host cells treated before infection (washed), 0.01 Unit/ml
# [19] = Host cells treated before infection (washed), 0.03 Unit/ml
# [20] = Host cells treated before infection (washed), 0.1 Unit/ml
# [21] = Host cells treated before infection (washed), 0.3 Unit/ml
# [22] = Host cells treated before infection (washed), 1 Unit/ml
# [23] = Sporozoite treated before infection (45 min, washed), 0.01 Unit/ml
# [24] = Sporozoite treated before infection (45 min, washed), 0.03 Unit/ml
# [25] = Sporozoite treated before infection (45 min, washed), 0.1 Unit/ml
# [26] = Sporozoite treated before infection (45 min, washed), 0.3 Unit/ml
# [27] = Sporozoite treated before infection (45 min, washed), 1 Unit/ml
# [28] = enzyme added 3 h post infection, 48 h, 0.01 Unit/mL
# [29] = enzyme added 3 h post infection, 48 h, 0.03 Unit/mL
# [30] = enzyme added 3 h post infection, 48 h, 0.1 Unit/mL
# [31] = enzyme added 3 h post infection, 48 h, 0.3 Unit/mL
# [32] = enzyme added 3 h post infection, 48 h, 1 Unit/mL
substance,measurement,setting,value
phosphatidylinositol specific phospholipase C [Recombinant PI-PLC],Feed (g) consumed/mouse/day AVG,[1]; [4],7.56 g
same,Weight (g) AVG,[1]; [4],16.67 g
same,Feed (g) consumed/mouse/day AVG,[1]; [5],8.31 g
same,Weight (g) AVG,[1]; [5],16.95 g
same,Feed (g) consumed/mouse/day AVG,[1]; [6],8.55 g
same,Weight (g) AVG,[1]; [6],17.29 g
same,Feed (g) consumed/mouse/day AVG,[1]; [7],7.78 g
same,Weight (g) AVG,[1]; [7],17.43 g
same,Feed (g) consumed/mouse/day AVG,[1]; [8],8.52 g
same,Weight (g) AVG,[1]; [8],17.64 g
same,Feed (g) consumed/mouse/day AVG,[1]; [9],7.89 g
same,Weight (g) AVG,[1]; [9],18.25 g
same,Feed (g) consumed/mouse/day AVG,[1]; [10],9.79 g
same,Weight (g) AVG,[1]; [10],18.2 g
same,Feed (g) consumed/mouse/day AVG,[1]; [11],6.13 g
same,Weight (g) AVG,[1]; [11],17.055 g
same,Feed (g) consumed/mouse/day AVG,[1]; [12],8.51 g
same,Weight (g) AVG,[1]; [12],16.91 g
same,Feed (g) consumed/mouse/day AVG,[1]; [13],7.93 g
same,Weight (g) AVG,[1]; [13],17.08 g
same,Feed (g) consumed/mouse/day AVG,[1]; [14],8.06 g
same,Weight (g) AVG,[1]; [14],17.62 g
same,Feed (g) consumed/mouse/day AVG,[1]; [15],8.53 g
same,Weight (g) AVG,[1]; [15],17.84 g
same,Feed (g) consumed/mouse/day AVG,[1]; [16],8.22 g
same,Weight (g) AVG,[1]; [16],18.62 g
same,Feed (g) consumed/mouse/day AVG,[1]; [17],8.3 g
same,Weight (g) AVG,[1]; [17],18.63 g
same,reduction in parasite load in the treated groups,"[1]; feces at 3, 4 and 4.5 weeks post-infection, 30 or 90 U/lb",34-54%
same,Parasite load (SD) Day 21,[1]; 30 U/lb in feed,16.2 (4.7) oocysts/100 μl
same,Parasite load (SD) Day 28,[1]; 30 U/lb in feed,23.4 (11)* oocysts/100 μl
same,Parasite load (SD) Day 31,[1]; 30 U/lb in feed,74.3 (89.7)^+ oocysts/100 μl
same,Percent Inhibition Day 21,[1]; 30 U/lb in feed,52.0%
same,Percent Inhibition Day 28,[1]; 30 U/lb in feed,54.6%
same,Percent Inhibition Day 31,[1]; 30 U/lb in feed,40.0%
same,Parasite load (SD) Day 21,[1]; 90 U/lb in feed,22.7 (11.4) oocysts/100 μl
same,Parasite load (SD) Day 28,[1]; 90 U/lb in feed,26.3 (14)* oocysts/100 μl
same,Parasite load (SD) Day 31,[1]; 90 U/lb in feed,87.5 (52.9) oocysts/100 μl
same,Percent Inhibition Day 21,[1]; 90 U/lb in feed,44.0%
same,Percent Inhibition Day 28,[1]; 90 U/lb in feed,48.9%
same,Percent Inhibition Day 31,[1]; 90 U/lb in feed,34.0%
same,Feed Conversion Day 0-21,[2],1.701
same,Feed Conversion Day 8-21,[2],1.778
same,Lesion Score E. acer. Upper,[2],2.25
same,Lesion Score E. max. Middle,[2],1.50
same,Live Weight Day 21,[2],0.486
same,Weight Gain Day 0-21,[2],0.451
same,Weight Gain Day 8-21,[2],0.347
same,Mean Number of Cryptosporidium per microtiter plate well,[3]; [18],543.85
same,Percent Inhibition,[3]; [18],56.84%
same,Mean Number of Cryptosporidium per microtiter plate well,[3]; [19],522.66
same,Percent Inhibition,[3]; [19],58.53%
same,Mean Number of Cryptosporidium per microtiter plate well,[3]; [20],455.88
same,Percent Inhibition,[3]; [20],63.82%
same,Mean Number of Cryptosporidium per microtiter plate well,[3]; [21],629.24
same,Percent Inhibition,[3]; [21],50.07%
same,Mean Number of Cryptosporidium per microtiter plate well,[3]; [22],393.64
same,Percent Inhibition,[3]; [22],68.76%
same,Mean Number of Cryptosporidium per microtiter plate well,[3]; [23],542.15
same,Percent Inhibition,[3]; [23],56.98%
same,Mean Number of Cryptosporidium per microtiter plate well,[3]; [24],527.59
same,Percent Inhibition,[3]; [24],58.13%
same,Mean Number of Cryptosporidium per microtiter plate well,[3]; [25],536.80
same,Percent Inhibition,[3]; [25],57.40%
same,Mean Number of Cryptosporidium per microtiter plate well,[3]; [26],433.04
same,Percent Inhibition,[3]; [26],65.64%
same,Mean Number of Cryptosporidium per microtiter plate well,[3]; [27],412.40
same,Percent Inhibition,[3]; [27],67.27%
same,inhibition,"[3]; at a concentration of 0.1 U/mL (FIG. 1), enzyme added 3 h after infection for 48 hours",Approximately 50%
same,concentration range with anti-cryptosporidial activity in vitro,[3]; enzyme added 3 h after infection for 48 hours,0.01-1 U/mL
same,Mean Number of Cryptosporidium per microtiter plate well,[3]; [28],1167.78
same,Percent Inhibition,[3]; [28],7.33%
same,Mean Number of Cryptosporidium per microtiter plate well,[3]; [29],912.15
same,Percent Inhibition,[3]; [29],27.62%
same,Mean Number of Cryptosporidium per microtiter plate well,[3]; [30],595.53
same,Percent Inhibition,[3]; [30],52.74%
same,Mean Number of Cryptosporidium per microtiter plate well,[3]; [31],286.5
same,Percent Inhibition,[3]; [31],77.26%
same,Mean Number of Cryptosporidium per microtiter plate well,[3]; [32],285.28
same,Percent Inhibition,[3]; [32],77.36%
